A short description of assay [1]: Inhibition of yeast alpha-glucosidase G7256. More on the design: species or system Saccharomyces cerevisiae.
Assay [2] in a line: Inhibition of Saccharomyces cerevisiae recombinant alpha-glucosidase G0660.

These results are taken from ChEMBL document CHEMBL1148201, “Penasulfate A, a new alpha-glucosidase inhibitor from a marine sponge Penares sp” (J Nat Prod, 2004).

In turn, `CCCC[C@H]1CCCCCCCCC[C@H](OS(=O)(=O)[O-])[C@H](OS(=O)(=O)[O-])[C@@H](OS(=O)(=O)[O-])CCCCCCCCCCCCC(=O)N2CCC[C@H]2C(=O)O1.[Na+].[Na+].[Na+]` [PENAROLIDE SULFATE A1] returned a half-inhibitory concentration (IC50) in assay [1] of 1.2 µg/mL.
For the molecule `CCC[C@H]1CCCCCCCCC[C@H](OS(=O)(=O)[O-])[C@H](OS(=O)(=O)[O-])[C@@H](OS(=O)(=O)[O-])CCCCCCCCCCCCCC(=O)N2CCC[C@H]2C(=O)O1.[Na+].[Na+].[Na+]` [PENAROLIDE SULFATE A2], the IC50 in assay [1] turned out to be 1.5 µg/mL.
Consider `CCCCCC[C@H](C)CCCCCC[C@H](OS(=O)(=O)[O-])[C@@H](CCCCCCCCCCCCC(=O)N1CCCC[C@@H]1C(=O)OC)OS(=O)(=O)[O-].[Na+].[Na+]` [PENASULFATE A], for which, in assay [2], the IC50 stood at 3.5 µg/mL.
